Where “and” joins values, the source holds several entries; their conditions need not be identical. Equal values may be shown once.
Columns and labels:
[1] = test system: virus of Friend's leukemia (VFA); assay: Friend's leukemia, measurement of splenomegaly (Table XVII); assay type: in vivo, DBA2 male mice; details: for Mean weight of the spleen: 10 mg/kg (0.2 mg/mouse), day +15; for Mean weight of the spleen / Number of leukemic mice: D + 1; for Number of leukemic mice: 10 mg/kg, spleen >250 mg
Excerpt: (§1) The following experiments related to the treatment of mice inoculated by the virus of Friend's leukemia.
(§2) In these experiments DBA2, male mice, aged from 2 to 3 months, of weight around 20 g, were used.
(§3) An anemia inducing strain of Friend's virus (VFA) maintained for several years in the laboratory was used. The viral stock was constituted by an acellular supernatant liquor obtained by the centrifugation of a ground product of leukemic spleens, carried out in an 0.5 M PBS-saccharose solution. The assay of the stock was done in vivo by the method described by JASMIN et al [J. Nat. Cancer Inst. 1974,53, 469-474]. The measurement is expressed in SD50 (50% spleen enlarging dose).
The Friend virus was injected in the mouse by the intraperitoneal route. […] The spleens were removed and then weighed individually.

leukemia L1210 [2] = assay: Leukemia L1210 in vivo, effect of the day of inoculation (Table XIII); parameters: species or system mice; details: 15 mg/kg; for Death interval / ILS % / Mean survival time: 10^5 cells; for Surviving mice: groups of 6 mice
Method: The properties were determined by the curative action inoculated experimental leukemia L1210. This leukemia was maintained on B6 D2 Fl (C 57 Bl/6×DBA/2) Fl mice in the proportion of 6 or 10 mice per experimental batch. The compounds to be tested were injected by the intraperitoneal route one or several days after inoculation of the cells (1 injection only). The death interval was determined, the first figure of the Table indicating the date of the first mouse death and the second the date of the last mouse death. The mean survival time was also measured (MST). A characteristic value is the percentage of increased life span (ILS %).
As in the above test the death interval was determined, the mean survival time (MST) was measured and the percentage of increased life span (ILS %) was calculated.

L1210 cells = assay: In vitro cytotoxic study on leukemia L1210 cells, complete inhibition of growth (Table XVI); assay type: cell-based
Method: Cytotoxic "in vitro" study on hamster cells on leukemia L1210 cells of the serie.
After 5 hours, the cells were attached to a plastic support and the products to be tested whose solutions had been formed in water or in DMSO (dimethylsulphoxide) if the product was little soluble in water, was added. In the latter case a control was carried out with the same final concentration of DMSO in the culture medium.
The state of the cells was examined 24, 48 and 72 hours later.
In the case of the L1210 cells, the tests were carried out in a medium gelled with agarose, the L1210 cells growing in suspension.

leukemia L1210 [3] = assay: Leukemia L1210 in vivo, measurement of survival time (Table XII); parameters: species or system B6 D2 Fl (C 57 Bl/6×DBA/2) Fl mice; MST: unit not given here; details: for Death interval (mice) / ILS % / MST / Surviving mice: i.p.
Method: The following pharmacological trials relate to the effects of the compounds of the invention on leukemia L1210 in vivo.
G. Proc. Nat. Acad. Sci. 1972, 69, 1042-1047 and Schepartz S., Screening 1971, Cancer Chemother. Part 3; Vol. 2, p. 3].
The properties were determined by the curative action inoculated experimental leukemia L1210. This leukemia was maintained on B6 D2 Fl (C 57 Bl/6×DBA/2) Fl mice in the proportion of 6 or 10 mice per experimental batch. The compounds to be tested were injected by the intraperitoneal route one or several days after inoculation of the cells (1 injection only). […] The death interval was determined, the first figure of the Table indicating the date of the first mouse death and the second the date of the last mouse death. The mean survival time was also measured (MST). A characteristic value is the percentage of increased life span (ILS %). This value (Cancer. Res. 1971, 31, 1883-1887) is the ratio: [formula] where S^t =survival of treated animals and
S^c =survival of control animals.

Friend's virus (VFA) = assay: Anemia inducing Friend's virus, dose/effect relationship (Table XIX); assay type: in vivo, mice; details: for Death interval / ILS % / Mean survival time: VFA 1/800, D+1; for Surviving mice: groups of 10 mice
Excerpt: as §1, §2, §3
Experimental groups of 10 mice were used, into which the VFA virus (dilution 1/800-% of leukemias=100%) was injected on day Do. The compound 27 according to the invention was then injected at day D+1 at various doses according to the groups and the death interval, the mean survival time and the percentage of increased life span were determined.

[4] = test system: cells of viro-induced leukemia of Friend; assay: In vitro cytotoxic study on cells of the Friend leukemia of the mouse (Table XV); assay type: cell-based
Method: "In vitro" cytotoxic study of the compounds of the invention on the cells of viro-induced leukemia of Friend in the mouse [J. Exp. Med. 1957, 105, p. 307-318].
The cells were grown in suspension in the RPMI 1640 medium [catalogue of GIBCO Bio-Cult-Ltd, Washington Road Sandyford Industrial Estate Paisley PA3 4EP Renfrewshire Scotland] supplement with 20% of embryonary calf serum, with penicillin and with streptopycin. The duplication time of the culture was about 11 hours. The growth factor is equal to 1 or very close to 1 (all the cells multiplying).
The cultures were seeded at times t=0 at the concentration of 2×10^5 cells per ml in Falcon dishes containing 4 ml of medium. 24 hours later, the product to be tested (in solution, in acetic water) was added, at the moment when the cells were in the exponential growth phase. 24 hours after the addition of the product, the cells were counted and the percentage of living cells determined by an exclusion test with trypan blue.

[5] = experimental group of six mice, 15 mg/kg, day +1, 15 mg/kg
[6] = experimental group of six mice, 20 mg/kg, day +1

## CCN(CC)CCCNc1nccc2c(C)c3[nH]c4ccc(OC)cc4c3c(C)c12 [Compound 27]
[1]; mouse, in vivo
  protective power on Friend's leukemia: has a protective power on Friend's leukemia
[1]; virus dilution 1/800
  Mean weight of the spleen: 183 mg
  Number of leukemic mice: 2/10
[1]; virus dilution 1/1600
  Mean weight of the spleen: 199 mg
  Number of leukemic mice: 0/5
[1]; virus dilution 1/3200
  Mean weight of the spleen: 220 mg
  Number of leukemic mice: 1/5
Leukemia L1210 [2]
  activity by day of inoculation: more active one day after inoculation of the cells
Leukemia L1210 [2]; D+1
  Death interval: 15-29
  ILS %: 82.6%
  Mean survival time: 21
  Surviving mice: 2 mice
Leukemia L1210 [2]; D+2
  Death interval: 15-35
  ILS %: 88.7%
  Mean survival time: 21.7
  Surviving mice: 0 mice
Leukemia L1210 [2]; D+3
  Death interval: 13-25
  ILS %: 56.5%
  Mean survival time: 18
  Surviving mice: 0 mice
Leukemia L1210 [2]; D+4
  Death interval: 14-20
  ILS %: 39.1%
  Mean survival time: 16
  Surviving mice: 0 mice
Leukemia L1210 [2]; Do(+3h)
  Death interval: 16-25
  ILS %: 80%
  Mean survival time: 20.7
  Surviving mice: 0 mice
L1210 cells; Mus musculus, L1210, medium gelled with agarose, read-out: Minimal dose leading to a complete inhibition of the growth
  IC (100 (complete growth inhibition, minimal)): 0.6 µM
L1210 cells; summary of Table XVI
  activity compared with the reference BD40: almost as active as the reference dipyrido-indole (BD40)
Leukemia L1210 [3]; 10^5 cells, 10 mg/kg, day +3
  Death interval (mice): 12-31
  ILS %: 49.4%
  MST: 17.3
Leukemia L1210 [3]; 10^5 cells, 10 mg/kg, day +4
  Death interval (mice): 16-27
  ILS %: 92.3%
  MST: 20
Leukemia L1210 [3]; 10^5 cells, 15 mg/kg, day +1
  Death interval (mice): 17-43
  ILS %: 128.6%
  MST: 24
Leukemia L1210 [3]; 10^5 cells, 20 mg/kg, day +3
  Death interval (mice): 10-30
  ILS %: 42.7%
  MST: 16.5
Leukemia L1210 [3]; 10^5 cells, 20 mg/kg, day +4
  Death interval (mice): 17-23
  ILS %: 94.2%
  MST: 20.2
Leukemia L1210 [3]; experimental group of six mice, 15 mg/kg, day +1
  Surviving mice: 4 mice
Leukemia L1210 [3]; [5]
  Death interval (mice): 19-35 and 20-32
  MST: 25 and 26
Leukemia L1210 [3]; [6]
  Death interval (mice): 20-31
  ILS %: 102.4%
  MST: 25.5
  Surviving mice: 4 mice
Leukemia L1210 [3]; text: dose closest to the toxic dose, same conditions
  increase in the life span (ILS): 134%
Friend's virus (VFA); 15 mg/kg, group of 10 mice
  deaths through toxicity: Two
Friend's virus (VFA); 5-15 mg/kg
  dose/effect relationship: proportional to the inoculated dose
Friend's virus (VFA); 5 mg/kg
  Death interval: 25-36
  ILS %: 31.78%
  Mean survival time: 31.1
  Surviving mice: 0 mice
Friend's virus (VFA); 10 mg/kg
  Death interval: 32-64
  ILS %: 103%
  Mean survival time: 45.8
  Surviving mice: 0 mice
Friend's virus (VFA); 15 mg/kg
  Death interval: 33-63
  Mean survival time: 49.9
  Surviving mice: 0 mice
Friend's virus (VFA); 15 mg/kg, toxic deaths excluded
  ILS %: 122%
[4]; Mus musculus, 24 h, read-out: LD 50 (50% lethal dose)
  IC50: 450 nM
[4]; Mus musculus, 24 h, read-out: LD 100 (100% lethal dose)
  IC100: 1.2 µM
[4]; ratio to reference HUM
  LD 50 HUM / LD 50 product: 0.65
